Laboratory results as given in patent publication US11274095B2, “Modulators of methyl modifying enzymes, compositions and uses thereof” (Constellation Pharmaceuticals, Inc., priority 2018, dated 2022).

Tests used:
[1] = target: T1, PRC2 containing wt EZH2 (Homo sapiens (Human), UniProt Q15910); assay: EZH2 biochemical assay (IC50), 3H-SAM incorporation into biotinylated H3 peptide; details: 30 pM PRC2 with wt EZH2, 3-5 h pre-incubation
Protocol: EZH2 biochemical assay (IC50): Compound potencies were assessed through incorporation of ^3H-SAM into a biotinylated H3 peptide. Specifically, 30 pM PRC2 containing wt EZH2 (pentameric complex prepared in-house) was pre-incubated with 450 nM SAM, 450 nM ^3H-SAM, 2 μM H3K27me3 activating peptide (H2N-RKQLATKAAR(Kme3)SAPATGGVKKP-amide) and compounds (as 10 point duplicate dose response titrations in DMSO, final assay 0.8% DMSO (v/v)) for 3-5 h in 50 mM Tris (pH 8.5), 1 mM DTT, 0.07 mM Brij-35, 0.1% BSA, and 0.8% DMSO in a total volume of 12.5 μl. Reaction was initiated with biotinylated H3 substrate peptide (H2N-RKQLATKAAR(Kmel)SAPATGGVKKP-NTPEGBiot) as a 2 μM stock in 12.5 μl of buffer and allowed to react at room temperature for 18-22 h. Quenching was accomplished by addition of 20 μl of STOP solution (50 mM Tris (pH 8.5), 200 mM EDTA, 2 mM SAH). 35 μl of the quenched solution was transferred to streptavidin coated FlashPlates (PerkinElmer), incubated 1-2 h, washed, and read in a TopCount Reader (PerkinElmer). IC50s were calculated in Genedata Screener using non-linear least square four parameter fits, where the four parameters were IC50, Hill slope, pre-transitional baseline (0% INH), and post-transitional baseline (100% INH).

[2] = tested on: Karpas-422 cell lines; assay: Karpas-422 viability assay (Cell Titer-Glo, Day 8); type: cell-based; details: Homo sapiens, KARPAS-422, 192 h, Cell Titer-Glo on Day 8
Protocol: Karpas-422 cell lines were obtained from DSMZ (Braunschweig, Germany) and were grown in RPMI-1640 media. All media contained 10% fetal bovine serum (FBS) and 1% penicillin/streptomycin (Invitrogen). 20K cells per well were plated onto 96 well compound coated plates. Cells were split and seeded at original plating density (based on the DMSO well counts) every 4 days into plates containing fresh EZH2 inhibitors. Relative cell numbers were assessed by Cell Titer-Glo luminescent cell viability assay (Promega) on Day 8. GraphPad Prism 5 was used for curve fitting and GI50 values were reported.

[3] = target: T1, PRC2 containing wt EZH2; assay: EZH2 residence time assay (100-fold dilution of enzyme-inhibitor complex); type: biochemical; details: recovery of enzyme activity after 100-fold dilution; read-out: EZH2 residence time (converted)
Protocol: EZH2 residence time assay: Compound residence times were assessed by monitoring the recovery of enzyme activity following a 100-fold dilution of pre-formed enzyme-inhibitor complex (dilution reaction), and comparing it to the activity of an undiluted control with the same final concentrations of all reagents (control reaction). Enzyme activity was measured by incorporation of ^3H-SAM into a biotinylated H3 peptide. For the dilution reaction, 20 nM PRC2 containing wt EZH2 (pentameric complex prepared in-house) was pre-incubated with 1 μM activating peptide (H2N-RKQLATKAAR(Kme3)SAPATGGVKKP-amide) and compound at 600 times its Ki for 2 h in 40 μL of buffer (50 mM Tris pH 8.5, 4 mM DTT, 1 mM MgCl2, 0.07 mM Brij-35, and 0.1 mg/mL BSA), then diluted 100-fold and the reaction initiated by transferring 1.4 μL to a 138.6 μL volume of buffer containing 1 μM activating peptide, 5.05 μM substrate peptide (H2N-[…]-NTPEGbiot), 1.01 μM SAM, and 1.01 μM ^3H-SAM. […] Reactions were quenched at various time points spanning up to 10 hours, by transferring 8μL aliquots from the reaction vessel to a plate containing 8μL per well of STOP solution (50 mM Tris pH 8.5, 200 mM EDTA, 2 mM SAH). After the last time point, 12 μL of the quenched solutions were transferred to a streptavidin coated FlashPlate (PerkinElmer) containing 40 μL per well of STOP solution, incubated 1-8 h, washed, and read in a TopCount plate reader (PerkinElmer).
A custom script was used to fit control reaction progress data to a straight line and dilution reaction progress data:
[formula] Where y is the product formed, t is the reaction time, vi is the initial velocity, vs is the steady state velocity, and kobs is the rate constant for the transition from the initial velocity phase of the curve to the steady state velocity phase of the curve. In fitting the dilution reaction progress data, vs was constrained to the slope of the line fitted to the control reaction progress data. The fitted value of kobs was then transformed into residence time:
[formula] Where τ is residence time, Ki is the inhibition constant, [EI] is the calculated equilibrium concentration of enzyme-inhibitor complex, [E] is the calculated equilibrium concentration of free enzyme, and [I] is the calculated equilibrium concentration of free inhibitor.

[4] = Cellular permeability in MDCK assay; type: in vitro ADME; details: dog, pH 7.4, MDCK II, with P-gp inhibitor GF120918 10 μM; for efflux ratio at 2.5 h, 2 μM: Papp(BA)/Papp(AB)
Protocol: Cell culture: MDCK II cells (obtained from Piet Borst at the Netherlands Cancer Institute) were seeded onto […] (PET) in 96-well BD insert systems at 2.5×10^5 cells/mL until to 4-7 days for confluent cell monolayer formation.
Experimental procedure: Test and reference compounds (nadolol, metoprolol and digoxin) were diluted with transport buffer (HBSS with 10mM Hepes, pH7.4) from stock solution to a concentration of 2 μM (<1% DMSO) and applied to the apical (A) or basolateral (B) side of the cell monolayer. Permeation of the test compounds from A to B direction or B to A direction was determined in duplicate with P-gp inhibitor (GF120918, 10 μM). Digoxin was tested at 10 μM from A to B direction or B to A direction with/without P-gp inhibitor (GF120918, 10 μM) as well, while nadolol and metoprolol were tested at 2 μM in A to B direction without P-gp inhibitor (GF120918, 10 μM) in duplicate. The plate was incubated for 2.5 hours in CO2 incubator at 37±1° C., with 5% CO2 at saturated humidity without shaking. In addition, the efflux ratio of each compound was also determined. Test and reference compounds were quantified by LC/MS/MS analysis based on the peak area ratio of analyte/IS. After transport assay, Lucifer yellow rejection assay are applied to determine the cell monolayer integrity. Buffers are removed from both apical and basolateral chambers, followed by the addition of 75 μL of 100 μM lucifer yellow in transport buffer and 250 μL transport buffer in apical and basolateral chambers, respectively. The plate is incubated for 30 minutes at 37° C. with 5% CO2 and 95% relative humidity without shaking. After 30 minutes incubation, 20 μL of lucifer yellow samples are taken from the apical sides, followed by the addition of 60 μL of Transport Buffer. And then 80 μL of lucifer yellow samples are taken from the basolateral sides. The relative fluorescence unit (RFU) of lucifer yellow is measured at 425/528 nm (excitation/emission) with a Molecular Device M2e plate reader.
Data analysis: The apparent permeability coefficient Papp (cm/s) was calculated using the equation: Papp=(dCr/dt)×Vr/(A×C0) Where dCr/dt is the cumulative concentration of compound in the receiver chamber as a function of time (μM/s); Vr is the solution volume in the receiver chamber (0.075 mL on the apical side, 0.25 mL on the basolateral side); A is the surface area for the transport, i.e. 0.0804 cm2 for the area of the monolayer; C0 is the initial concentration in the donor chamber (μM).
The efflux ratio was calculated using the equation: Efflux Ratio=Papp(BA)/Papp(AB) Percent recovery was calculated using the equation: % Recovery=100×[(Vr×Cr)+(Vd×Cd)]/(Vd×C0) Where Vd is the volume in the donor chambers (0.075 mL on the apical side, 0.25 mL on the basolateral side); Cd and Cr are the final concentrations of transport compound in donor and receiver chambers, respectively.
Percent of lucifer yellow in basolateral well is calculated using the equation:
[formula] where RFUApical and RFUBasolateral are the relative fluorescence unit values of lucifer yellow in the apical and basolateral wells, respectively; VApical and VBasolateral are the volume of apical and basolateral wells (0.075 mL and 0.25 mL), respectively. Percent lucifer yellow should be less than 2.

[5] = tested on: H3K27me3 in Hela cells; assay: H3K27me3 Alpha Hela Assay (AlphaLISA); type: cell-based; details: Homo sapiens, HeLa, 72 h
Protocol: H3K27me3 Alpha Hela Assay (AlphaLISA). Ten different doses of each test compound (in a series of 3-fold dilutions) were plated in duplicate 384-well tissue culture treated plates (Catalog #6007680; Perkin Elmer, Waltham, Mass.). Hela cells grown in culture were trypsinized and counted using a Countess® cell counter (Catalog #C10281; Life Technologies, Grand Island, N.Y.). Cell were diluted to 67,000 cells per mL in10% DMEM (Catalog #10569-010 Life Technologies, Grand Island, N.Y.) and 15 μL (1,000 cells) were plated into each well using the Biotek MicroFlo™ Select Dispenser (BioTek Instruments, Inc. Vermont, USA),) of the 384-well plate. Plates were incubated at 37° C./5% CO2 for 72 hrs. One of the duplicate plates was processed for HeLa assay and the other for viability. 5 μL of Cell-Histone Lysis buffer (1×) (Catalog #AL009F1 Perkin Elmer; Waltham, Mass.) per well was added to the plate processed for AlphaLISA and the plate was incubated at RT for 30 minutes on a plate shaker with low speed (Model# 4625-Q Thermo Scientific; Waltham, Mass.). Then, 10 μL per well Histone Extraction buffer (catalog #AL009F2; Perkin Elmer; Waltham, Mass.) was added and the plate further incubated at RT for 20 min on plate shaker with low speed. Next, 10 μL of 5× mix of anti-K27me3 acceptor beads plus Biotinylated anti-Histone H3 (C-ter) Antibody (diluted to 3 nM final) (Catalog #AL118 Perkin Elmer; Waltham, Mass.) was added in each well. Dilution of the acceptor beads and anti-Histone H3 was done in 1× Histone Detection buffer (Catalog #AL009F3 Perkin Elmer; Waltham, Mass.) which was produced by diluting the 10× stock provided. The plate was sealed with an aluminum plate sealer and incubated at 23° C. for 60 min. Next, 10 μL 5× solution of Streptavidin Donor beads were added (Catalog #6760002 Perkin Elmer; Waltham, Mass.) (20 μg/mL final in 1× Histone Detection Buffer), =plate was sealed with Aluminum plate sealer and incubated at 23° C. for 30 min. The plates were then read using an EnVision-Alpha Reader (model #2104 Perkin Elmer; Waltham, Mass.). […]

T1 sequence (Q15910 whole entry): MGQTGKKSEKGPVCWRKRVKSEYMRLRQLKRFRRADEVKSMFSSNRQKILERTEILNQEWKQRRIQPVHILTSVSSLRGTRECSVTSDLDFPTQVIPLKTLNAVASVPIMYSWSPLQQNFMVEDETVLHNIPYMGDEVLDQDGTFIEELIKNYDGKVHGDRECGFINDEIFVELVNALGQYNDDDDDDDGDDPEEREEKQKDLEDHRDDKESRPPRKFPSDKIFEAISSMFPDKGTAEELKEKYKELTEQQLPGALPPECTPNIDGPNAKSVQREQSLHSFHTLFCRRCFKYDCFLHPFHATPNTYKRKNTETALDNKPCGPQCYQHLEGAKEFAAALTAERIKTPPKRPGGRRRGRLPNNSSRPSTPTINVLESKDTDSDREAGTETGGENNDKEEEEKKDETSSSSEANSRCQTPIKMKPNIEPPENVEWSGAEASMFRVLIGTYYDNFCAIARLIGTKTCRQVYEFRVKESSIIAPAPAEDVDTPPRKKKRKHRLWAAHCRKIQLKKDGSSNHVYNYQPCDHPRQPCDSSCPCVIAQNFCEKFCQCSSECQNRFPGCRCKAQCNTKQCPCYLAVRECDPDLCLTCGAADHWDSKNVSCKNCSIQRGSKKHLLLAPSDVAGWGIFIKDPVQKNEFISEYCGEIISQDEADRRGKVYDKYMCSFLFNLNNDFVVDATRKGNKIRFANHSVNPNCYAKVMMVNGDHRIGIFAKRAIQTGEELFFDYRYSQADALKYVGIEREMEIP
T1 sequence (O75530 whole entry partner): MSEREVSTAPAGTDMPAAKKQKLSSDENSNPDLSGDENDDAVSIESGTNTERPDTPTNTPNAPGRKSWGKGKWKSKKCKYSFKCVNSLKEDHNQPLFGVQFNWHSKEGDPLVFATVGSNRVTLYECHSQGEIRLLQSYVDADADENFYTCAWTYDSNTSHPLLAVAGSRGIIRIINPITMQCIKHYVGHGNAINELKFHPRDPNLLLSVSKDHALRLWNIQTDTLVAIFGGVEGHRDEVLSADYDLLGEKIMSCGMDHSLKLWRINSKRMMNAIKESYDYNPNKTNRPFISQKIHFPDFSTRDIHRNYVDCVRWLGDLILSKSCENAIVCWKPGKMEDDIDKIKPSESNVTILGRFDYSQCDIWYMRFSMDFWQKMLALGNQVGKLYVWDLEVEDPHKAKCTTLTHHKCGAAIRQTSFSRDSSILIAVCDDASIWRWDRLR
T1 sequence (Q15022 whole entry partner): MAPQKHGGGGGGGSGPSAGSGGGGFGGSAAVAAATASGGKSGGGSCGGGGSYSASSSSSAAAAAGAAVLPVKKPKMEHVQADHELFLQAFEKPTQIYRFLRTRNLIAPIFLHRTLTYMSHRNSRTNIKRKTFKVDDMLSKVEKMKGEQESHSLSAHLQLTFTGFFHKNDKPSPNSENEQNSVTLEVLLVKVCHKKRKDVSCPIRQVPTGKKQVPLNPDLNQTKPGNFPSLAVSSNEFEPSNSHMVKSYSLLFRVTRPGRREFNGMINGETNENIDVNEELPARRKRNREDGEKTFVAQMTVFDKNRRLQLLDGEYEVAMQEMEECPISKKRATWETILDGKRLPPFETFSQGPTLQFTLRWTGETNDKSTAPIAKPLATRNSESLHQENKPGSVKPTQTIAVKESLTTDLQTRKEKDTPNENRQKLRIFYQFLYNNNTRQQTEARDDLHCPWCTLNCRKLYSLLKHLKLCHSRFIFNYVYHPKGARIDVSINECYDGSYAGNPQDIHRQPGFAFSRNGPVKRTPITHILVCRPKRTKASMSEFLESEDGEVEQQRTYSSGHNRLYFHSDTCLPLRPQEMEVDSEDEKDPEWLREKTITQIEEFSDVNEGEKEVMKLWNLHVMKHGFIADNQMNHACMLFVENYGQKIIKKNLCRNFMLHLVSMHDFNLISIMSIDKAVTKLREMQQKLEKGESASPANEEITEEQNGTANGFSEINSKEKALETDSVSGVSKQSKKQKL
T1 sequence (Q09028 whole entry partner): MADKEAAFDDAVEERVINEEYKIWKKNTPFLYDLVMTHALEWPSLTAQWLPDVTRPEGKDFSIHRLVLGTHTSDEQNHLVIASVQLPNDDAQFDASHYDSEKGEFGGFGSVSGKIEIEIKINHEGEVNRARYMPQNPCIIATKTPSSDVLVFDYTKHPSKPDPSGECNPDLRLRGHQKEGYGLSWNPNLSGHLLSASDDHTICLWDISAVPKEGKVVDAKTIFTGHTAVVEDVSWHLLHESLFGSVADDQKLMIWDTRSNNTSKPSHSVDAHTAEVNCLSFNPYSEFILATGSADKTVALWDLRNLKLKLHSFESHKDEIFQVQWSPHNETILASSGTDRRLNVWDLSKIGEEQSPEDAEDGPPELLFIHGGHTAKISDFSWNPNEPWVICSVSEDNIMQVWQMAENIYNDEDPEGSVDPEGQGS
T1 sequence (Q6ZN18 whole entry partner): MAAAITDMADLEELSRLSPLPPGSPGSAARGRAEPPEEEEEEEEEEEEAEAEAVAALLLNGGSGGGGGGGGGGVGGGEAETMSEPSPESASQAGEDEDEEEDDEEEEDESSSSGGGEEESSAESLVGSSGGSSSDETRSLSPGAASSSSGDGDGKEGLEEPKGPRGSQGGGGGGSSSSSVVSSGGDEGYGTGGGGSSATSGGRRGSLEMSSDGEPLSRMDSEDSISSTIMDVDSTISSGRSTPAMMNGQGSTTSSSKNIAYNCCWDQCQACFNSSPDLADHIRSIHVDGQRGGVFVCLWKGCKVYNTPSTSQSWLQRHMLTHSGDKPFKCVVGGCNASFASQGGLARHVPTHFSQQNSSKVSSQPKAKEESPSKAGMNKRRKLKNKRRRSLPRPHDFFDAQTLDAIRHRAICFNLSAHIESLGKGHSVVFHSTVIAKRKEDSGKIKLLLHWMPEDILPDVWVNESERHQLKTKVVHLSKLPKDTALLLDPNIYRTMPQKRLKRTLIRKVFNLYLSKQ

SMILES | IC50 [1] [nM] | GI50 [2] [nM] | residence time [3] [min] | Papp at 2.5 h, 2 μM [4] [×10⁻⁶ cm/s] | efflux ratio at 2.5 h, 2 μM [4] | EC50 [5] [nM]
CSc1cc(C)[nH]c(=O)c1CNC(=O)c1cc(Cl)c2c(c1C)OC(C)(C1CCC(N3CC(F)(F)C3)CC1)O2 (single isomer, unassigned) [Example 7-Enantiomer 2] | 0.12 | 12 | 1980 | 12 | 0.71 | 
CSc1nc(C)[nH]c(=O)c1CNC(=O)c1cc(Cl)c2c(c1C)O[C@@](C)([C@H]1CC[C@H](N(C)C)CC1)O2 [Example 5] | 0.054 | 22 |  | 1.1 | 3.6 | 3.6
